Experimental data: ChEMBL document CHEMBL4265943, “Design and synthesis of potent dual inhibitors of JAK2 and HDAC based on fusing the pharmacophores of XL019 and vorinostat” (Eur J Med Chem, 2018)

Tested on: PC-3
Assay: Antiproliferative activity against human PC3 cells after 72 hrs by MTT assay
Type: functional, cell-based
Settings: PC-3, 72 h

IC50	SMILES
1740 nM	Cc1cnc(Nc2ccc(N3CCOCC3)cc2)nc1-c1ccc(NC(=O)CCCCCCC(=O)NO)cc1
47300 nM	CC(=O)Nc1ccc(-c2ccnc(Nc3ccc(NC(=O)CCCCC(=O)NO)cc3)n2)cc1
1150 nM	CN1CCN(CC(=O)Nc2ccc(-c3ccnc(Nc4cccc(OCCCCCCC(=O)NO)c4)n3)cc2)CC1

Tested on: not listed separately
Assay: Antiproliferative activity against human AC10 cells after 72 hrs by MTT assay
Type: cell-based
Settings: not given

SMILES	CC50 at 72 h
Cc1cnc(Nc2ccc(N3CCOCC3)cc2)nc1-c1ccc(NC(=O)CCCCCCC(=O)NO)cc1	6060 nM
CN1CCN(CC(=O)Nc2ccc(-c3ccnc(Nc4cccc(OCCCCCCC(=O)NO)c4)n3)cc2)CC1	6270 nM

Tested on: not listed separately
Assay: Selectivity index, ratio of CC50 for human AC10 cells to IC50 for human PC3 cells
Type: toxicity
Settings: AC10 cells (CC50) and PC3 cells (IC50)

SMILES	selectivity ratio
CN1CCN(CC(=O)Nc2ccc(-c3ccnc(Nc4cccc(OCCCCCCC(=O)NO)c4)n3)cc2)CC1	5.45

Tested on: HCT-116
Assay: Antiproliferative activity against human HCT116 cells after 72 hrs by MTT assay
Type: functional, cell-based
Settings: HCT-116, 72 h

IC50	SMILES
2530 nM	Cc1cnc(Nc2ccc(N3CCOCC3)cc2)nc1-c1ccc(NC(=O)CCCCCCC(=O)NO)cc1
65600 nM	CC(=O)Nc1ccc(-c2ccnc(Nc3ccc(NC(=O)CCCCC(=O)NO)cc3)n2)cc1
770 nM	CN1CCN(CC(=O)Nc2ccc(-c3ccnc(Nc4cccc(OCCCCCCC(=O)NO)c4)n3)cc2)CC1

Tested on: not listed separately
Assay: Selectivity index, ratio of CC50 for human AC10 cells to IC50 for human MDA-MB-231 cells
Type: toxicity
Settings: AC10 cells (CC50) and MDA-MB-231 cells (IC50)

SMILES	selectivity ratio
CN1CCN(CC(=O)Nc2ccc(-c3ccnc(Nc4cccc(OCCCCCCC(=O)NO)c4)n3)cc2)CC1	9.65

Tested on: MCF7
Assay: Antiproliferative activity against human MCF7 cells after 72 hrs by MTT assay
Type: functional, cell-based
Settings: MCF7, 72 h

IC50	SMILES
2470 nM	Cc1cnc(Nc2ccc(N3CCOCC3)cc2)nc1-c1ccc(NC(=O)CCCCCCC(=O)NO)cc1
43400 nM	CC(=O)Nc1ccc(-c2ccnc(Nc3ccc(NC(=O)CCCCC(=O)NO)cc3)n2)cc1
1320 nM	CN1CCN(CC(=O)Nc2ccc(-c3ccnc(Nc4cccc(OCCCCCCC(=O)NO)c4)n3)cc2)CC1

Biological target: Tyrosine-protein kinase JAK2 (Homo sapiens, UniProt O60674)
Assay: Inhibition of human JAK2 using poly(Glu:Tyr)(4:1) as substrate preincubated for 20 mins followed by [gamma33P]ATP addition measured after 120 mins by ion exchange filter paper method
Settings: not given

Chain of Tyrosine-protein kinase JAK2 (O60674 whole entry): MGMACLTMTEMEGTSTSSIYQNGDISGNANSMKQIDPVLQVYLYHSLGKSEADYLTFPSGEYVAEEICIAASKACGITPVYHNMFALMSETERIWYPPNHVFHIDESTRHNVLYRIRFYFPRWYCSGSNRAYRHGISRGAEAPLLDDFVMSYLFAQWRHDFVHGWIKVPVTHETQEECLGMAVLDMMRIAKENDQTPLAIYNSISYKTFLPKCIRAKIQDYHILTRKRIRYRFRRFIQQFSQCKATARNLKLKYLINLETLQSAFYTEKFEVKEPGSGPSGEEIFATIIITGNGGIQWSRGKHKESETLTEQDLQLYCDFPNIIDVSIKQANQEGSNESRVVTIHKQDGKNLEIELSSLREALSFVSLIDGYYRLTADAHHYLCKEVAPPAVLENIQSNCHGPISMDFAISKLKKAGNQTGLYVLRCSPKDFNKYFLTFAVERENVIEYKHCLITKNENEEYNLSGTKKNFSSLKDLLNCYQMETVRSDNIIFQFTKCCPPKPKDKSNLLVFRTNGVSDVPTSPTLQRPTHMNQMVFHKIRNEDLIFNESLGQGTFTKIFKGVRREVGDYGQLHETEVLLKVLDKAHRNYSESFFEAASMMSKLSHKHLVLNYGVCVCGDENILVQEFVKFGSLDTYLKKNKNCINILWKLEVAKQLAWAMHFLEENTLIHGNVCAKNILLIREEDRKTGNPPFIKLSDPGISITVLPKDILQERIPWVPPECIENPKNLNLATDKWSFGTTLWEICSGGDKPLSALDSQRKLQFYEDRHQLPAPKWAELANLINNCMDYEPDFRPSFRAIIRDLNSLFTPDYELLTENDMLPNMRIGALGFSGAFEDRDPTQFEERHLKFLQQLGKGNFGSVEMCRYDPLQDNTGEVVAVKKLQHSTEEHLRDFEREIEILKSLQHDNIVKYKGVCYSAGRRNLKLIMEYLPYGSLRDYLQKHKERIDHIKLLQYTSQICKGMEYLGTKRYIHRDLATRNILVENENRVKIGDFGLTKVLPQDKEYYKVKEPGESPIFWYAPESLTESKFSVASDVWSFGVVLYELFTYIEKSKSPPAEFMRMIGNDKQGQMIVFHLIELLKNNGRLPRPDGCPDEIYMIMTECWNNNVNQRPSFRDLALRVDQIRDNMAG

IC50	SMILES
58.3 nM	CC(=O)Nc1ccc(-c2ccnc(Nc3ccc(NC(=O)CCCCC(=O)NO)cc3)n2)cc1
109 nM	CN1CCN(CC(=O)Nc2ccc(-c3ccnc(Nc4cccc(OCCCCCCC(=O)NO)c4)n3)cc2)CC1

Tested on: not listed separately
Assay: Antiproliferative activity against mouse TAMH cells after 72 hrs by MTT assay
Type: cell-based
Settings: not given

SMILES	CC50 at 72 h
Cc1cnc(Nc2ccc(N3CCOCC3)cc2)nc1-c1ccc(NC(=O)CCCCCCC(=O)NO)cc1	7470 nM
CN1CCN(CC(=O)Nc2ccc(-c3ccnc(Nc4cccc(OCCCCCCC(=O)NO)c4)n3)cc2)CC1	5110 nM

Tested on: not listed separately
Assay: Selectivity index, ratio of CC50 for human AC10 cells to IC50 for human MCF7 cells
Type: toxicity
Settings: AC10 cells (CC50) and MCF7 cells (IC50)

SMILES	selectivity ratio
CN1CCN(CC(=O)Nc2ccc(-c3ccnc(Nc4cccc(OCCCCCCC(=O)NO)c4)n3)cc2)CC1	4.75

Tested on: MDA-MB-231
Assay: Antiproliferative activity against human MDA-MB-231 cells after 72 hrs by MTT assay
Type: functional, cell-based
Settings: MDA-MB-231, 72 h

IC50	SMILES
1230 nM	Cc1cnc(Nc2ccc(N3CCOCC3)cc2)nc1-c1ccc(NC(=O)CCCCCCC(=O)NO)cc1
32100 nM	CC(=O)Nc1ccc(-c2ccnc(Nc3ccc(NC(=O)CCCCC(=O)NO)cc3)n2)cc1
650 nM	CN1CCN(CC(=O)Nc2ccc(-c3ccnc(Nc4cccc(OCCCCCCC(=O)NO)c4)n3)cc2)CC1

Tested on: not listed separately
Assay: Selectivity index, ratio of CC50 for mouse TAMH cells to IC50 for human PC3 cells
Type: toxicity
Settings: TAMH cells (CC50) and PC3 cells (IC50)

SMILES	selectivity ratio
CN1CCN(CC(=O)Nc2ccc(-c3ccnc(Nc4cccc(OCCCCCCC(=O)NO)c4)n3)cc2)CC1	4.44

Tested on: not listed separately
Assay: Selectivity index, ratio of CC50 for mouse TAMH cells to IC50 for human HCT116 cells
Type: toxicity
Settings: TAMH cells (CC50) and HCT116 cells (IC50)

SMILES	selectivity ratio
CN1CCN(CC(=O)Nc2ccc(-c3ccnc(Nc4cccc(OCCCCCCC(=O)NO)c4)n3)cc2)CC1	6.64

Tested on: not listed separately
Assay: Selectivity index, ratio of CC50 for mouse TAMH cells to IC50 for human MDA-MB-231 cells
Type: toxicity
Settings: TAMH cells (CC50) and MDA-MB-231 cells (IC50)

SMILES	selectivity ratio
CN1CCN(CC(=O)Nc2ccc(-c3ccnc(Nc4cccc(OCCCCCCC(=O)NO)c4)n3)cc2)CC1	7.86

Tested on: not listed separately
Assay: Selectivity index, ratio of CC50 for human AC10 cells to IC50 for human HCT116 cells
Type: toxicity
Settings: AC10 cells (CC50) and HCT116 cells (IC50)

SMILES	selectivity ratio
CN1CCN(CC(=O)Nc2ccc(-c3ccnc(Nc4cccc(OCCCCCCC(=O)NO)c4)n3)cc2)CC1	8.14

Biological target: Histone deacetylase 1 (Homo sapiens, UniProt Q13547)
Assay: Inhibition of HDAC1 (unknown origin) using Arg-His-Lys-Lys(Ac) as substrate preincubated with enzyme followed by substrate addition for 2 hrs and measured for 1.5 hrs at 15 mins time interval by fluorescence assay
Settings: not given

Chain of Histone deacetylase 1 (Q13547 whole entry): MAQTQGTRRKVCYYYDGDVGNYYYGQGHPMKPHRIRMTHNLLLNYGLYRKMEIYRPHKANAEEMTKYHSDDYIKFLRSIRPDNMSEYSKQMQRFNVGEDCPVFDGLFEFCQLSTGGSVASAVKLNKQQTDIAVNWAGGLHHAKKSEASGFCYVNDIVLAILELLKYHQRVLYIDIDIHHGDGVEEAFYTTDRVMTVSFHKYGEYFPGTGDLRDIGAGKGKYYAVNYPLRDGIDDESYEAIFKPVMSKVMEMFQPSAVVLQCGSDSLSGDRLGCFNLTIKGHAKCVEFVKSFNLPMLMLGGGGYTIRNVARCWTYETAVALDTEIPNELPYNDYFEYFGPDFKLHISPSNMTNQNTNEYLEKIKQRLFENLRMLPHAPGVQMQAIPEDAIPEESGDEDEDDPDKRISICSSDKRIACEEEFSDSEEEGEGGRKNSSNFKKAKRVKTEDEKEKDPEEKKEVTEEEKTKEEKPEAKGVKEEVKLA

IC50	SMILES
289 nM	Cc1cnc(Nc2ccc(N3CCOCC3)cc2)nc1-c1ccc(NC(=O)CCCCCCC(=O)NO)cc1
3350 nM	CC(=O)Nc1ccc(-c2ccnc(Nc3ccc(NC(=O)CCCCC(=O)NO)cc3)n2)cc1
348 nM	CN1CCN(CC(=O)Nc2ccc(-c3ccnc(Nc4cccc(OCCCCCCC(=O)NO)c4)n3)cc2)CC1

Biological target: T1, Protein deacetylase HDAC6 (Homo sapiens, UniProt Q9UBN7)
T1 sequence (Q9UBN7 whole entry): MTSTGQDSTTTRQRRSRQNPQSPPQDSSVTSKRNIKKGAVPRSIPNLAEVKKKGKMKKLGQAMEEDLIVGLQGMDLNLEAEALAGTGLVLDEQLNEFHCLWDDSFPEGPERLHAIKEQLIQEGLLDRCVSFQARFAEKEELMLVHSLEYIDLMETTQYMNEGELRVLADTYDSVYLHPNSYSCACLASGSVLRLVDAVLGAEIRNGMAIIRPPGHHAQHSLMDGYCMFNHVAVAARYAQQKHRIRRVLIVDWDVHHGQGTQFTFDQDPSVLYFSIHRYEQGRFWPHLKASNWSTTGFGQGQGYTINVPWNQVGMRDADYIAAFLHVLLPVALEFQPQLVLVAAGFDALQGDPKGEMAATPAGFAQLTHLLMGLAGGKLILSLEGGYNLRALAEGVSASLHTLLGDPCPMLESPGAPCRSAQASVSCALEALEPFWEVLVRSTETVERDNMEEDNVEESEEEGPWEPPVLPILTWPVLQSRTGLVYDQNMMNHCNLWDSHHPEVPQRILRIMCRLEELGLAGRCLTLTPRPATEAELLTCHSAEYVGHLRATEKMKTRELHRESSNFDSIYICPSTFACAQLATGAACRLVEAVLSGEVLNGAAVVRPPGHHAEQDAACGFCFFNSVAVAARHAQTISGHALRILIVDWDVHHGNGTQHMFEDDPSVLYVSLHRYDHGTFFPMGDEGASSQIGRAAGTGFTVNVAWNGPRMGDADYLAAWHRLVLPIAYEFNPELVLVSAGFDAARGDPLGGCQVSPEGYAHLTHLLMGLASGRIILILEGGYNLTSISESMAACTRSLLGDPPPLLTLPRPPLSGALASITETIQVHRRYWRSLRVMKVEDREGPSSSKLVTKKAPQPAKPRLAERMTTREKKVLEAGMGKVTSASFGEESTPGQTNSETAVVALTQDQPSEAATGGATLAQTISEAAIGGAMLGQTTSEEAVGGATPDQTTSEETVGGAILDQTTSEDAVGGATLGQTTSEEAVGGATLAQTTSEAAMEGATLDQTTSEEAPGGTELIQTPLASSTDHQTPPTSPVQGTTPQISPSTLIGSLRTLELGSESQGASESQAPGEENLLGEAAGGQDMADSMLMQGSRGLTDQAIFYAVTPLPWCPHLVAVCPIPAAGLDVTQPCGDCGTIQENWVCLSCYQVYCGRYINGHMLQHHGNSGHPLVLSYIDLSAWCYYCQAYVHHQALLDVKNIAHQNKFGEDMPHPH
Assay: Inhibition of HDAC6 (unknown origin) using Arg-His-Lys-Lys(Ac) as substrate preincubated with enzyme followed by substrate addition for 2 hrs and measured for 1.5 hrs at 15 mins time interval by fluorescence assay
Settings: not given

IC50	SMILES
3.7 nM	Cc1cnc(Nc2ccc(N3CCOCC3)cc2)nc1-c1ccc(NC(=O)CCCCCCC(=O)NO)cc1
117 nM	CC(=O)Nc1ccc(-c2ccnc(Nc3ccc(NC(=O)CCCCC(=O)NO)cc3)n2)cc1
6.8 nM	CN1CCN(CC(=O)Nc2ccc(-c3ccnc(Nc4cccc(OCCCCCCC(=O)NO)c4)n3)cc2)CC1

Tested on: not listed separately
Assay: Selectivity index, ratio of CC50 for mouse TAMH cells to IC50 for human MCF7 cells
Type: toxicity
Settings: TAMH cells (CC50) and MCF7 cells (IC50)

SMILES	selectivity ratio
CN1CCN(CC(=O)Nc2ccc(-c3ccnc(Nc4cccc(OCCCCCCC(=O)NO)c4)n3)cc2)CC1	3.87
